Measured values: patent US20230250054A1, “SELECTIVE HISTONE DEACETYLASE 6 INHIBITORS” (The Board of Trustees of the University of Illinois, priority 2020, published 2023)

Assays:
HDAC1 = biological target: T1, HDAC1 (Homo sapiens, UniProt Q13547); assay: Fluorescence-based HDAC inhibition assay, HDAC1; format: biochemical
T1 construct: made in house; host or cells: HEK293/T17 cells, transient transfection
Protocol: (§1) Briefly, transiently transfected cells were harvested three days post-transfection and the cell pellets resuspended in a lysis buffer (50 mM Tris, 150 mM NaCl, 10 mM KCl, 2 mM MgCl2, 10% glycerol, 0.2% NP-40, 2 Units/mL benzonase, pH 8) supplemented with a cocktail of protease inhibitors (Roche, Basel, Switzerland). Cells were lysed by sonication (30 W; 3×20 s) on ice, and the cell lysate cleared by centrifugation at 40 000×g for 30 min at 4° C. […] Purified proteins were concentrated to 1 mg/mL, aliquoted, flash-frozen in liquid nitrogen, and stored at −80° C. until further use.
(§2) Briefly, individual HDACs were preincubated with dilution series of tested inhibitors (0-100 μM) in a 384-well plate in the total volume of 40 μL for 10 min at 37° C. in a reaction buffer comprising 50 mM HEPES, 140 mM NaCl, 10 mM KCl, 1 mM TCEP, 0.1% BSA, pH 7.4. Deacetylation reaction was started by the addition of 10 μL of a 10 μM substrate into the HDAC/inhibitor mixture. Following the 30 min incubation at 37° C., the reaction was terminated by the addition of 25 μL of the trypsin solution (4 mg/mL). Fluorescence development by trypsin was carried out at 37° C. for 15 and 60 min for Ac-GAK(Ac)-AMC and Boc-Lys(TFA)-AMC substrate, respectively. […] Non-linear regression analysis was employed to calculate IC50 values using the GraphPad Prism software. […] Reactions without the enzyme or the inhibitor were used to define 0% and 100% of the HDAC activity, respectively.

HDAC2 = biological target: T2, HDAC2 (Homo sapiens, UniProt Q92769); assay: Fluorescence-based HDAC inhibition assay, HDAC2; format: biochemical; conditions: for IC50: 10 μM Ac-GAK(Ac)-AMC substrate, mean of two experiments ± SEM
T2 construct: made in house; host or cells: HEK293/T17 cells, transient transfection
T2 sequence (Q92769 whole entry): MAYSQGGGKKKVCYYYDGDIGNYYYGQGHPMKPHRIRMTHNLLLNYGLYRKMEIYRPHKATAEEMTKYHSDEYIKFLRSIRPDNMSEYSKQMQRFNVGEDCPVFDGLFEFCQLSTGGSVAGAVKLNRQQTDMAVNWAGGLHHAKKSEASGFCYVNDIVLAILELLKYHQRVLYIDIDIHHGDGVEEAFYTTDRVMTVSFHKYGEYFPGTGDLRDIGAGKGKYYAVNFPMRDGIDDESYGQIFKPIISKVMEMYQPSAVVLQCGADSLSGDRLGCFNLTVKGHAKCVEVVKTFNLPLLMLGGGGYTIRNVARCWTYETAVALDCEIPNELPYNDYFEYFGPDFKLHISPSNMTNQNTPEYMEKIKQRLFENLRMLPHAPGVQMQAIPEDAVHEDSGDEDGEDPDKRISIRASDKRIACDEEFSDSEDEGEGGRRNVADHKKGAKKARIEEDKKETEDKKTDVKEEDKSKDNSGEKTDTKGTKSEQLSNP
Protocol: as §1, §2

HDAC3 = biological target: T3, HDAC3 (Homo sapiens, UniProt O15379); assay: Fluorescence-based HDAC inhibition assay, HDAC3; format: biochemical; conditions: for IC50: 10 μM Ac-GAK(Ac)-AMC substrate, mean of two experiments ± SEM
T3 construct: made in house; host or cells: HEK293/T17 cells, transient transfection
T3 sequence (O15379 whole entry): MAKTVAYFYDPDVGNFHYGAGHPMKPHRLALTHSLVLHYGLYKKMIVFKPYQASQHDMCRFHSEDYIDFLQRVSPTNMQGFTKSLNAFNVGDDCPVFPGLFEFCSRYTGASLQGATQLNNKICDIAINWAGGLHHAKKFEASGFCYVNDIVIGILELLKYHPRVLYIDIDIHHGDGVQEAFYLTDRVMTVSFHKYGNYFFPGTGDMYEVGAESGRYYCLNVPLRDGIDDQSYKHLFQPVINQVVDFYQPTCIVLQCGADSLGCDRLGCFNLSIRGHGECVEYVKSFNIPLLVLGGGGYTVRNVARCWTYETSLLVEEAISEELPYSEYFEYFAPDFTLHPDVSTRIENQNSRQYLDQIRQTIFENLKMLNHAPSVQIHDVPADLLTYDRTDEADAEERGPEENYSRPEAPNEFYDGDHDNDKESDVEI
T3 sequence (Q9Y618 389-480 partner limits assumed): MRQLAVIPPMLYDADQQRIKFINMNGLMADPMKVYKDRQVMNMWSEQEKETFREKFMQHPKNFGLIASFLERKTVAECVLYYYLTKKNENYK
Protocol: as §1, §2

HDAC5 = biological target: T4, HDAC5 (Homo sapiens, UniProt Q9UQL6); assay: Fluorescence-based HDAC inhibition assay, HDAC5; format: biochemical; conditions: for IC50: 10 μM Boc-Lys(TFA)-AMC substrate, mean of two experiments ± SEM
T4 construct: made in house; host or cells: HEK293/T17 cells, transient transfection
T4 sequence (Q9UQL6 whole entry): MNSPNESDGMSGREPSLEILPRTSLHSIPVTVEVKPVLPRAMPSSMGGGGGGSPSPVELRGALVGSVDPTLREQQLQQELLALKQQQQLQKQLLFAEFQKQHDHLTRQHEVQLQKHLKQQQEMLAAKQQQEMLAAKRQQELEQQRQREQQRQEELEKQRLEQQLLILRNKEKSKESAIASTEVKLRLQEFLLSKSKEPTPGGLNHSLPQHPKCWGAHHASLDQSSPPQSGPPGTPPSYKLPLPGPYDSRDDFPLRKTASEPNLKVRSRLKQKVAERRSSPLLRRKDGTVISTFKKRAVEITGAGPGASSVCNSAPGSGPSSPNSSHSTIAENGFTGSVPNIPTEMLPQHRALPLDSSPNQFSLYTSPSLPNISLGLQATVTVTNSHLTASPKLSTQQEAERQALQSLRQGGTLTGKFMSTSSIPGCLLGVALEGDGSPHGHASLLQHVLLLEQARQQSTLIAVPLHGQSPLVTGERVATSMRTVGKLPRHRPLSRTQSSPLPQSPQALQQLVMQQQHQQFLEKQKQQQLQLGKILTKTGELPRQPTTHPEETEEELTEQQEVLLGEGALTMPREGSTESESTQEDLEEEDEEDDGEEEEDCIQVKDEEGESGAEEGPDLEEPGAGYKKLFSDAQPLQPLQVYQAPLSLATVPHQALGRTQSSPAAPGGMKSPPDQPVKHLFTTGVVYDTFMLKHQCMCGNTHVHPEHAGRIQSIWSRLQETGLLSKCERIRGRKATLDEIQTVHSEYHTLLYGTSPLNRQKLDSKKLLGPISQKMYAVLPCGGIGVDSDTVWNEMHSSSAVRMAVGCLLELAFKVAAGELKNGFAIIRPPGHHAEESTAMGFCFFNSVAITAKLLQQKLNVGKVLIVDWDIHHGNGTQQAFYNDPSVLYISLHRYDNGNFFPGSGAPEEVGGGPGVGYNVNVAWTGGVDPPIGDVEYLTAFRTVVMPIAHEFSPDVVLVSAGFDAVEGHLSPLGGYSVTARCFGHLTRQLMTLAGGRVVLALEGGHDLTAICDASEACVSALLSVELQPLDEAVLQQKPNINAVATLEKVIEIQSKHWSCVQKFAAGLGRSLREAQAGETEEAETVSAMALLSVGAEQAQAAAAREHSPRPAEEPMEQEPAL
Protocol: as §1, §2

HDAC7 = biological target: T5, HDAC7 (Homo sapiens, UniProt Q8WUI4); assay: Fluorescence-based HDAC inhibition assay, HDAC7; format: biochemical; conditions: for IC50: 10 μM Boc-Lys(TFA)-AMC substrate, mean of two experiments ± SEM
T5 construct: made in house; host or cells: HEK293/T17 cells, transient transfection
T5 sequence (Q8WUI4 1-952): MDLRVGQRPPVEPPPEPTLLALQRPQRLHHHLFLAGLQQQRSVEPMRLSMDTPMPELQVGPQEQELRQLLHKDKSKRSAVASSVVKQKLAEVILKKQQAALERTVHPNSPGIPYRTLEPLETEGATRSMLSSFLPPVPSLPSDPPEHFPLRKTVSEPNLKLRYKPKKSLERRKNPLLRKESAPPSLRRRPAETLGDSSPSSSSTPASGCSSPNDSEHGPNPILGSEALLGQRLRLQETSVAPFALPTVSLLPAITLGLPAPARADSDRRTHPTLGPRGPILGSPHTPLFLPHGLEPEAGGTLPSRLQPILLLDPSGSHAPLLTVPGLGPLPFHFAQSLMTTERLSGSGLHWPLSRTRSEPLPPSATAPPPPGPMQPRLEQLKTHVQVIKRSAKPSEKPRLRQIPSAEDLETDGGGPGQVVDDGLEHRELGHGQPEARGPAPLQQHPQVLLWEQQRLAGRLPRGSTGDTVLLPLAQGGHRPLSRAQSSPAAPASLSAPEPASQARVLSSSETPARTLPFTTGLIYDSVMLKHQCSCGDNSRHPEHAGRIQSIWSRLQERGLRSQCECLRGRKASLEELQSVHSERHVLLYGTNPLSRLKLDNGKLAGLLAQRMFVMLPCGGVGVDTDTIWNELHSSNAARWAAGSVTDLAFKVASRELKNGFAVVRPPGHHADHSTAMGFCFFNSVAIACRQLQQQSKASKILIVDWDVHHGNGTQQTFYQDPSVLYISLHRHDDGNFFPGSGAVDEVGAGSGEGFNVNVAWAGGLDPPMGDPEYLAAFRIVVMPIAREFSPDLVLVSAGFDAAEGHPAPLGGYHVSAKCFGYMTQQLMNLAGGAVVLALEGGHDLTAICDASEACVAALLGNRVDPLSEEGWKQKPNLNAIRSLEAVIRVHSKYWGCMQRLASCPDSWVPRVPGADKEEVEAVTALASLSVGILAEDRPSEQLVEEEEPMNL
Protocol: as §1, §2

HDAC8 = biological target: T6, HDAC8 (Homo sapiens, UniProt Q9BY41); assay: Fluorescence-based HDAC inhibition assay, HDAC8; format: biochemical; conditions: for IC50: 10 μM Boc-Lys(TFA)-AMC substrate, mean of two experiments ± SEM
T6 construct: made in house; host or cells: HEK293/T17 cells, transient transfection
T6 sequence (Q9BY41 1-377): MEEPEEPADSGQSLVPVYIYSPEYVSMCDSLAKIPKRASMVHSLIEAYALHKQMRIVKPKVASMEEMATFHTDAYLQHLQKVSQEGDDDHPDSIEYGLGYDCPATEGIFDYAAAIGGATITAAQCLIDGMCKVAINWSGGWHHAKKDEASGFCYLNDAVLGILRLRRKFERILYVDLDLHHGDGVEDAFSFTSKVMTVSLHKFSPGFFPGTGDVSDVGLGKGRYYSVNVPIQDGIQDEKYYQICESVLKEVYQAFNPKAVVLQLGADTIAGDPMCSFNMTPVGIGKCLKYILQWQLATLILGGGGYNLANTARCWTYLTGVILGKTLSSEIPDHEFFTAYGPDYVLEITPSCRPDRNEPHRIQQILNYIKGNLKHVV
Protocol: as §1, §2

HDAC9 = biological target: T7, HDAC9 (Homo sapiens, UniProt Q9UKV0); assay: Fluorescence-based HDAC inhibition assay, HDAC9; format: biochemical; conditions: for IC50: 10 μM Boc-Lys(TFA)-AMC substrate, mean of two experiments ± SEM
T7 construct: made in house; host or cells: HEK293/T17 cells, transient transfection
T7 sequence (Q9UKV0 whole entry): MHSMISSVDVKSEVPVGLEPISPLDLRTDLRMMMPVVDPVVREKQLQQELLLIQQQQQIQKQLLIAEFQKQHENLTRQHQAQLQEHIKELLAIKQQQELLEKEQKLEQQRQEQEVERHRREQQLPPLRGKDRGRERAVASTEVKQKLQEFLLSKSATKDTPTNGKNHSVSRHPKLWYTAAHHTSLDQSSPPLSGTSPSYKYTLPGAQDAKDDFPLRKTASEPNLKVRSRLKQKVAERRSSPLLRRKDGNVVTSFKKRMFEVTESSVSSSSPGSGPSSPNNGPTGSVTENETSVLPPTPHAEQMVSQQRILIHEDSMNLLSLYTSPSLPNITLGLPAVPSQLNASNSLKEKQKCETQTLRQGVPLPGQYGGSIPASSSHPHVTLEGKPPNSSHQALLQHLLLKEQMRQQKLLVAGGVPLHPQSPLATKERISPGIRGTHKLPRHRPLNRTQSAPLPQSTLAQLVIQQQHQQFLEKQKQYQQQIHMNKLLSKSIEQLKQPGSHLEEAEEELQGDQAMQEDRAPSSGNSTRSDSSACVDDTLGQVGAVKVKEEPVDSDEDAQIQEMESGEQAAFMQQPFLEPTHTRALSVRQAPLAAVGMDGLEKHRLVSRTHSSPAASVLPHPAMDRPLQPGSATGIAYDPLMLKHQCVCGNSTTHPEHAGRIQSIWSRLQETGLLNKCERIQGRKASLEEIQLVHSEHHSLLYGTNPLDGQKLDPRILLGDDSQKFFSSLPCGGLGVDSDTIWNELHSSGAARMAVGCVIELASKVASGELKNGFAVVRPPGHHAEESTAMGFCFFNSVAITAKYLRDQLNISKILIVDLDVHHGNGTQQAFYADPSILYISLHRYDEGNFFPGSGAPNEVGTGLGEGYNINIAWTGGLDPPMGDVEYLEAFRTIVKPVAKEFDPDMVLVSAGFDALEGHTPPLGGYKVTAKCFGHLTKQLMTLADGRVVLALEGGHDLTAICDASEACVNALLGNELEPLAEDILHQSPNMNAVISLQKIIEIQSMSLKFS
Protocol: as §1, §2

[1] = mean with standard error
plasma protein = assay: Protein binding in human plasma; conditions: plasma protein-bound fraction, mean with standard error
[2] = 10 μM Ac-GAK(Ac)-AMC substrate, mean of two experiments ± SEM

T1 sequence (Q13547 whole entry): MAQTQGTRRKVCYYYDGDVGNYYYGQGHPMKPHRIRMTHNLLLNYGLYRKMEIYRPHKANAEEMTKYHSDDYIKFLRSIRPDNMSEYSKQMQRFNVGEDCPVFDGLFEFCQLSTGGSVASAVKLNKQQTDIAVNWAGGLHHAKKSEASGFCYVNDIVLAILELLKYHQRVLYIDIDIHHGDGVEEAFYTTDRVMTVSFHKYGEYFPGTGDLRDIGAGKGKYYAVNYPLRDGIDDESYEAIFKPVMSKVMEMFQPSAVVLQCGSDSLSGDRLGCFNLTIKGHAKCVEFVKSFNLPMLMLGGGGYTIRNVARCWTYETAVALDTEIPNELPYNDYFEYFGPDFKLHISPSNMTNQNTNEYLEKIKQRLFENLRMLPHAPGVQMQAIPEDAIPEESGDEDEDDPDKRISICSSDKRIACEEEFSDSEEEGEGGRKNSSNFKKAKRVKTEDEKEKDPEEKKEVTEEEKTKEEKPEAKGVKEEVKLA

Structure (SMILES) | SI (HDAC6 selectivity index over HDAC1) (HDAC1) | IC50 (HDAC1; [2]) | SI (HDAC6 selectivity index over HDAC2) (HDAC2) | IC50 (HDAC2) | IC50 (HDAC3) | IC50 (HDAC5) | IC50 (HDAC7) | SI (HDAC6 selectivity index over HDAC8) (HDAC8) | IC50 (HDAC8) | SI (HDAC6 selectivity index over HDAC9) (HDAC9) | IC50 (HDAC9) | Rat liver microsomes (t1/2, min) [1] | Human plasma stability (t1/2, h) (Human plasma stability) | Human plasma binding (%) (plasma protein) | SI (HDAC6 selectivity index over HDAC3) (HDAC3) | SI (HDAC6 selectivity index over HDAC5) (HDAC5) | SI (HDAC6 selectivity index over HDAC7) (HDAC7) | IC50 (HDAC1; Table 2) | HDAC1/6 (HDAC1; ratio HDAC1 IC50 / HDAC6 IC50, Table 2) | Human plasma binding (%) (plasma protein; listed as Suprastat)
O=C(NO)c1ccc(CN(CCCCO)C(=O)Nc2ccccc2)cc1 [Compound 6c, reference compound] | 296 | 148 ± 9 nM | 536 | 268 ± 16 nM | 581 ± 18 nM | 9130 nM | 1930 nM | 956 | 478 ± 97 nM | 59,50 | 29700 nM | 198 min | >5 h | approximately 50% | – | – | – | – | – | –
CCCCN(Cc1ccc(C(=O)NO)cc1)C(=O)Nc1ccc(CN)cc1 [Compound 6b, 4-((3-(4-(Aminomethyl)phenyl)-1-butylureido)methyl)-N-hydroxybenzamide] | 89 | 80 ± 45 nM | 312 | 281 ± 28 nM | 443 ± 108 nM | 10100 nM | 9000 nM | 682 | 614 ± 58 nM | 19,200 | 17300 nM | 173 min | >5 h | approximately 50% | 492 | 11,200 | 10,000 | – | – | –
NCc1ccc(NC(=O)N(CCCCO)Cc2ccc(C(=O)NO)cc2)cc1 [Compound 6a, 4-((3-(4-(Aminomethyl)phenyl)-1-(4-hydroxybutyl)ureido)methyl)-N-hydroxybenz-amide] | 293 | 117 ± 10 nM | 440 | 176 ± 21 nM | 352 ± 2 nM | 3420 nM | 1470 nM | 1,250 | 498 ± 58 nM | 15,700 | 6270 nM | 177 min | >5 h | 1.9% | 880 | 8,550 | 3,680 | 117 ± 10 nM | 293 | 1.9%
